Data on five substances can be found in US8080517B2, “Cell-permeable peptide inhibitors of the JNK signal transduction pathway” (Xigen SA, priority 2005, dated 2011).

For one data set, the system named is βTC-3 cells. Kind of data set: IL-1β induced pancreatic β-cell death, peptide treatment, propidium iodide / Hoechst 33342 staining. The data set is classed as cell-based. Conditions: one single addition 1 μM, IL-1 10 ng/ml, two days, n=5. On the procedure: We investigated the effects of the inventive L-TAT-IB(s) peptides on the promotion of β-cell apoptosis elicited by IL-1. βTC-3 cell cultures were incubated for 30 minutes with 1 μM of inventive L-TAT-IB1(s) peptides followed by 10 ng/mL of IL-1. A second addition of peptide (1 μM) was performed 24 hours later. Apoptotic cells were counted after two days of incubation with IL-1 β using propidium iodide (red stained cell are dead cells) and Hoechst 33342 (blue stained cell are cells with intact plasma membrane) nuclear staining.
Long term inhibition of IL-1 induced cells death was examined by treating βTC-3 cells as described above, except that incubation of the cells with the peptides and IL-1 β was sustained for 12 days. Additional peptides (1 μM) were added each day and additional IL-1 β (10 ng/mL) was added every 2 days. […] Taken together, these experiments provide evidence that inventive TAT-IB(s) peptides are biologically active molecules able to prevent the effects of JNK signaling on cell fate.
Inhibition of IL-1 β induced pancreatic β-cell death by the inventive D-TAT-IB1(s) peptide was analyzed. βTC-3 cells were incubated as described above for 30 minutes with one single addition of the indicated peptides (1, μM), then IL-1 (10 ng/ml) was added.
Apoptotic cells were then counted after two days of incubation with IL-1 β by use of Propidium Iodide and Hoechst 33342 nuclear staining. A minimum of 1,000 cells were counted for each experiment. Standard Error of the Means (SEM) are indicated, n=5.
Long term inhibition of IL-1P induced cell-death by the D-TAT-IB1 peptide was also analyzed. βTC-3 cells were incubated as above for 30 minutes with one single addition of the indicated peptides (1 μM), then IL-1 β (10 ng/ml) was added, followed by addition of the cytokine every two days. Apoptotic cells were then counted after 15 days of incubation with IL-1 by use of propidium iodide and Hoechst 33342 nuclear staining. […] A minimum of 1.000 cells were counted for each experiment.

For the next data set, the system named is JNK. Conditions: JBDs; cited from earlier work.
The nature of data set [1]: Focal cerebral ischaemia, transient MCAO model, infarct volume. It counts as in vivo, male ICR-CD1 mice. From the text:
Evaluation of neuroprotection by inventive chimeric peptides after iv administration against focal cerebral ischaemia, in a transient MCAO model (see FIG. 4).
Transient ischemia in adult mice. Using male ICR-CD1 mice (6 weeks old; 18-37 g; Harlan), we provoked ischemia by introducing a filament from the common carotid artery into the internal carotid and advancing it into the arterial circle, thereby occluding the middle cerebral artery. We measured regional cerebral blood flow by laser Doppler flowmetry, with a probe fixed on the skull throughout the ischemia until 10 min after reperfusion. Rectal temperature was measured and maintained at 37° C. The mice were killed 48 h after reperfusion. Serial cryostat sections 20 μm thick were traced using a computer-microscope system equipped with the Neurolucida program (MicroBrightField) and the volumes of the ischemic area and of the whole brain were calculated (blinded) with the Neuroexplorer program. XG−102 0.3=0.3 mg/kg,XG−102 1=1 mg/kg, XG−102 5=5 mg/kg
The infarct volume sizes (mm^3) after bolus iv administration of placebo and XG-102 0.3, […] 6 hours after reperfusion (30 minutes clamp) in an adult mice model were as follows.

The subject of another data set is βTC-3 cell cultures. It counts as cell-based. On the procedure: The ability of the L- and D-enantiomeric forms of TAT and inventive TAT-IB1(s) peptides (“TAT-IB peptides”) to enter cells was evaluated. L-TAT, D-TAT, inventive L-TAT-IB1(s), and inventive D-TAT-IB1(s) peptides [SEQ ID NOs: 5, 6, 9 and 12, respectively] were labeled by N-terminal addition of a glycine residue conjugated to fluorescein. Labeled peptides (1 μM) were added to βTC-3 cell cultures, which were maintained as described in Example 3. At predetermined times cells were washed with PBS and fixed for five minutes in ice-cold methanol-acetone (1:1) before being examined under a fluorescence microscope. Fluorescein-labeled BSA (1 μM, 12 moles/mole BSA) was used as a control.
Little to no signal was present at 48 hours.
Fluorescent signals from these all-D retro-inverso peptides were still very strong 1 week later, and the signal was only slightly diminished at 2 weeks post treatment.

[ ]: non-standard residue; d: D form.

On to “TDQSRPVQPFLNLTTPRKPRYTDPPRRRQRRKKRG (TDQSRPVQPFLNLTTPRKPRYTDPPRRRQRRKKRG) [D-TAT-IB1, reference compound]”, for which, in the data set with βTC-3 cells, the “inhibition of IL-1β induced apoptosis” value is “decreased IL-1 induced apoptosis to a similar extent as L-TAT-IB peptides”. Turning to “PGTGCGDTYR PKRPTTLNLF PQVPRSQDT (PGTGCGDTYRPKRPTTLNLFPQVPRSQDT) [IB1-long]”, the “efficiency in binding JNK relative to c-Jun or ATF2” value with JNK is recorded as “approximately 100 fold”.

For “NH2-DQSRPVQPFLNLTTPRKPRPPRRRQRRKKRG-COOH (H-[dD][dQ][dS][dR][dP][dV][dQ][dP][dF][dL][dN][dL][dT][dT][dP][dR][dK][dP][dR][dP][dP][dR][dR][dR][dQ][dR][dR][dK][dK][dR]G-OH) [XG102]”, the “infarct volume sizes, moyenne” value in data set [1] (0.3 mg/kg bolus iv 6 hours after reperfusion (30 minutes clamp), n = 5, 48 h after reperfusion) was 16 mm^3; in data set [1] (1 mg/kg bolus iv 6 hours after reperfusion (30 minutes clamp), n = 1, 48 h after reperfusion), 16 mm^3; in data set [1] (XG102 3 group, bolus iv 6 hours after reperfusion (30 minutes clamp), n = 5, 48 h after reperfusion), 15 mm^3. As to “IPSPSVEEPH KHRPTTLRLT TLGAQDS (IPSPSVEEPHKHRPTTLRLTTLGAQDS) [1B2-long]”, the “efficiency in binding JNK relative to c-Jun or ATF2” value in the data set on JNK was “approximately 100 fold”. Turning to “NH2-RRRQRRKKRG-COOH (D-amino acids) [D-TAT, reference compound]”, the “stability inside the cells” value in the data set with βTC-3 cell cultures is on record as “extremely stable inside the cells”.
